≈ marks a conversion by molar mass, not a printed value. Where “and” joins values, the source holds several entries; their conditions need not be identical. Equal values may be shown once. One block for each compound: values may come before it.
Assays:
Test in all cases: ≥ marks a high value that may be exact or a test limit, other limits are often not marked, values filed in µg/mL are converted to µM
[1] = tested on: Limosilactobacillus fermentum ATCC 9338
[2] = tested on: Streptococcus gordonii ATCC 35105
[3] = tested on: Streptococcus salivarius ATCC 13419
[4] = tested on: Streptococcus sanguinis JCM 5708
[5] = tested on: Streptococcus mutans UA159
[6] = tested on: Streptococcus salivarius ATCC 27945
[7] = tested on: Lacticaseibacillus casei ATCC 393
[8] = tested on: Lactobacillus acidophilus ATCC 53544
[9] = tested on: Actinomyces naeslundii ATCC 12104
[10] = tested on: Lactobacillus acidophilus ATCC 14931
[11] = tested on: Streptococcus sobrinus 6715
[12] = tested on: Limosilactobacillus fermentum A1753
[13] = tested on: Enterococcus faecalis ATCC 29212
[14] = tested on: Streptococcus gordonii DL1
[15] = tested on: Streptococcus sanguinis ATCC 10556
[16] = tested on: Staphylococcus aureus ATCC 6538
[17] = tested on: Escherichia coli ATCC 10536
[18] = tested on: Klebsiella pneumoniae ATCC 27736
Cryptococcus neoformans = tested on: Cryptococcus neoformans
[19] = tested on: Trichophyton mentagrophytes
[20] = tested on: Candida parapsilosis ATCC 22019
Sporothrix schenckii = tested on: Sporothrix schenckii
[21] = tested on: Bacillus subtilis ATCC 6633
Candida albicans = tested on: Candida albicans
Staphylococcus aureus MR = tested on: Staphylococcus aureus MR
Aspergillus fumigatus = tested on: Aspergillus fumigatus
[22] = tested on: Pseudomonas aeruginosa ATCC BAA-427
[23] = tested on: Staphylococcus epidermidis NRRL B-4268
[24] = tested on: Staphylococcus aureus ATCC 9144
Candida albicans SC5314 = tested on: Candida albicans SC5314
[25] = tested on: Candida albicans CCARM 14021
[26] = tested on: Candida albicans CCARM 14020
[27] = tested on: Candida albicans CCARM 14022
[28] = tested on: Franconibacter helveticus DSM 18396
[29] = tested on: Kocuria rhizophila DSM 348
[30] = tested on: Bacillus subtilis DSM 347
[31] = tested on: Escherichia coli DH5alpha
[32] = tested on: Pectobacterium carotovorum
[33] = tested on: Trichosporon beigelii KCTC 7707
[34] = tested on: Salmonella typhimurium KCTC 1926
[35] = tested on: Candida albicans TIMM 1768
[36] = tested on: Bacillus subtilis KCTC 1918
[37] = tested on: Pseudomonas aeruginosa KCTC 1637
[38] = tested on: Staphylococcus epidermidis KCTC 3096
[39] = tested on: Salmonella enterica subsp. enterica serovar Typhimurium ATCC 14028
[40] = tested on: Pseudomonas aeruginosa ATCC 13388
[41] = tested on: Escherichia coli ATCC 11219
[42] = tested on: Klebsiella pneumoniae ATCC 10031

MIC [1]: 2.69 µM (≈ 4 µg/mL)
MIC [2]: 10.7 µM and 21.5 µM
MIC [3]: 5.37 µM (≈ 7.99 µg/mL)
MIC [4]: 5.37 µM and 10.7 µM
MIC [5]: 4.5 µM and 4.48 µM and 6.27 µM
MIC [6]: 2.47 µM and 4.92 µM
MIC [7]: 2.69 µM and 3.14 µM and 6.27 µM
MIC [8]: 3.14 µM and 4.92 µM
MIC [9]: 2.69 µM (≈ 4 µg/mL)
MIC [10]: 2.69 µM (≈ 4 µg/mL)
MIC [11]: 10.7 µM and 4.03 µM and 8.06 µM
MIC [12]: 2.02 µM and 3.14 µM
MIC [13]: 25.1 µM and 50.2 µM
MIC [14]: 5.37 µM (≈ 7.99 µg/mL)
MIC [15]: 5.37 µM (≈ 7.99 µg/mL)
MIC [16]: 7.17 µM and 14.3 µM
SMILES: CC(C)C[C@H](NC(=O)CN)C(=O)N[C@@H](CC(C)C)C(=O)N[C@@H](Cc1c[nH]c2ccccc12)C(=O)N[C@@H](Cc1cnc[nH]1)C(=O)N[C@@H](CC(C)C)C(=O)N[C@@H](CC(C)C)C(=O)N[C@@H](Cc1cnc[nH]1)C(=O)N[C@@H](Cc1cnc[nH]1)C(=O)N[C@@H](CC(C)C)C(=O)N[C@@H](CC(C)C)C(=O)N[C@@H](Cc1cnc[nH]1)C(N)=O [GLLWHLLHHLLH]

MIC [17]: 4.5 µM (≈ 8.2 µg/mL)
MIC [18]: 25 µM (≈ 45.6 µg/mL)
MIC (Cryptococcus neoformans): 25 µM (≈ 45.6 µg/mL)
MIC [19]: 25 µM (≈ 45.6 µg/mL)
MIC [20]: 25 µM (≈ 45.6 µg/mL)
MIC (Sporothrix schenckii): 25 µM (≈ 45.6 µg/mL)
MIC [21]: 20 µM (≈ 36.4 µg/mL)
MIC (Candida albicans): > 25 µM
MIC (Staphylococcus aureus MR): 25 µM (≈ 45.6 µg/mL)
MIC (Aspergillus fumigatus): 25 µM (≈ 45.6 µg/mL)
MIC [22]: 6.25 µM (≈ 11.4 µg/mL)
MIC [23]: 8 µM (≈ 14.6 µg/mL)
MIC [24]: 6.25 µM (≈ 11.4 µg/mL)
SMILES: CC(C)C[C@H](NC(=O)[C@H](C)NC(=O)[C@H](CCCN=C(N)N)NC(=O)[C@H](CCCN=C(N)N)NC(=O)[C@H](C)NC(=O)[C@H](Cc1c[nH]c2ccccc12)NC(=O)[C@H](CCCCN)NC(=O)[C@H](CCCN=C(N)N)NC(=O)[C@H](C)NC(=O)[C@H](CCCN=C(N)N)NC(=O)[C@H](CCCN=C(N)N)NC(=O)[C@H](C)N)C(=O)N[C@@H](CCCCN)C(=O)N[C@@H](CC(C)C)C(=O)N[C@@H](C)C(N)=O [ARRARKWARRALKLA]

MIC (Candida albicans SC5314): 15 µM (≈ 22.6 µg/mL)
MIC [25]: 21.2 µM (≈ 32 µg/mL)
MIC [26]: 7.51 µM (≈ 11.3 µg/mL)
MIC [27]: 21.2 µM (≈ 32 µg/mL)
SMILES: CC(C)C[C@H](NC(=O)[C@H](C)N)C(=O)N[C@@H](CC(C)C)C(=O)N[C@@H](Cc1cnc[nH]1)C(=O)N[C@@H](Cc1cnc[nH]1)C(=O)NCC(=O)N[C@@H](Cc1ccc(O)cc1)C(=O)N[C@@H](CCCCN)C(=O)N[C@@H](CCCN=C(N)N)C(=O)N[C@@H](CCCCN)C(=O)N[C@@H](Cc1ccccc1)C(=O)N[C@@H](Cc1cnc[nH]1)C(N)=O [ALLHHGYKRKFH]

MIC [28]: ≥ 128 µM
MIC [29]: 4 µM (≈ 9.56 µg/mL)
MIC [30]: 16 µM (≈ 38.3 µg/mL)
MIC [31]: ≥ 128 µM
SMILES: CC[C@H](C)[C@H](NC(=O)CN)C(=O)NCC(=O)N[C@@H](CCCCN)C(=O)N[C@@H](Cc1ccccc1)C(=O)N[C@@H](CC(C)C)C(=O)N[C@@H](Cc1cnc[nH]1)C(=O)N[C@@H](CO)C(=O)N[C@@H](C)C(=O)N[C@@H](CCCCN)C(=O)N[C@@H](CCCCN)C(=O)N[C@@H](Cc1ccccc1)C(=O)NCC(=O)N[C@@H](CCCCN)C(=O)N[C@@H](C)C(=O)N[C@@H](C)C(=O)N[C@H](C(=O)NCC(=O)N[C@@H](CCC(=O)O)C(=O)N[C@H](C(=O)N[C@@H](CCSC)C(=O)N[C@@H](CC(N)=O)C(=O)N[C@@H](CO)C(=O)O)[C@@H](C)CC)C(C)C [GIGKFLHSAKKFGKAAVGEIMNS]

MIC [32]: 4.47 µM (≈ 10.7 µg/mL)
SMILES: CC(C)C[C@H](NC(=O)[C@H](CC(N)=O)NC(=O)[C@H](Cc1ccc(O)cc1)NC(=O)[C@@H]1CCCN1C(=O)[C@@H]1CCCN1)C(=O)N[C@@H](CC(N)=O)C(=O)N[C@@H](CO)C(=O)N[C@@H](Cc1cnc[nH]1)C(=O)N[C@H](C(=O)N[C@@H](CCC(N)=O)C(=O)N[C@@H](CCC(=O)O)C(=O)N[C@@H](Cc1ccc(O)cc1)C(=O)N[C@@H](CO)C(=O)N[C@@H](CCCCN)C(=O)N1CCC[C@H]1C(=O)N[C@@H](CCC(=O)O)C(=O)N[C@@H](CC(=O)O)C(=O)N[C@H](C(=O)N[C@@H](Cc1ccccc1)C(=O)N[C@@H](CC(=O)O)C(=O)O)[C@@H](C)O)[C@@H](C)O [PPYNLNSHTQEYSKPEDTFD]

MIC [33]: 6.25 µM (≈ 13.1 µg/mL)
MIC [34]: 0.19 µM (≈ 0.397 µg/mL)
MIC [35]: 12.5 µM (≈ 26.1 µg/mL)
MIC [36]: 3.12 µM (≈ 6.52 µg/mL)
MIC [37]: 2.21 µM (≈ 4.61 µg/mL)
MIC [38]: 3.12 µM (≈ 6.52 µg/mL)
SMILES: CC[C@H](C)[C@H](NC(=O)CNC(=O)[C@@H](NC(=O)[C@H](CCCCN)NC(=O)[C@H](CCCCN)NC(=O)[C@H](Cc1ccccc1)NC(=O)[C@H](CC(C)C)NC(=O)[C@H](CCCCN)NC(=O)[C@H](Cc1c[nH]c2ccccc12)NC(=O)[C@@H](N)CCCCN)[C@@H](C)CC)C(=O)NCC(=O)N[C@@H](CCCCN)C(=O)N[C@@H](Cc1ccccc1)C(=O)N[C@@H](CC(C)C)C(=O)N[C@@H](CCCCN)C(=O)N[C@@H](CCCCN)C(=O)N[C@@H](CCCCN)C(N)=O [KWKLFKKIGIGKFLKKK]

MIC [39]: > 50 µM
MIC [40]: ≥ 50 µM
MIC [41]: 15 µM (≈ 19 µg/mL)
MIC [42]: 10 µM (≈ 12.7 µg/mL)
MIC [16]: 20 µM (≈ 25.4 µg/mL)
SMILES: CC[C@H](C)[C@H](NC(=O)CN)C(=O)N[C@@H](Cc1cnc[nH]1)C(=O)N[C@@H](CC(=O)O)C(=O)N[C@H](C(=O)N[C@@H](CC(C)C)C(=O)N[C@@H](CCCCN)C(=O)N[C@@H](Cc1ccc(O)cc1)C(=O)NCC(=O)N[C@@H](C)C(=O)N1CCC[C@H]1C(=O)N[C@@H](CO)C(N)=O)[C@@H](C)CC [GIHDILKYGAPS]

Source: DBAASP
